Source: patent US20020142995A1, “Ammonium salts of hemoglobin allosteric effectors, and uses thereof” (priority 2000, published 2002)
Values joined by “and” are separate entries in the source; they are usually repeats but may differ in a detail not shown here. Equal entries are not always repeated. Where two headings read alike, the source gives them in different places.

How the values were obtained:
[1] = tested on: Red Blood Cells; assay: Aggregation of red blood cells after incubation with effector; type: cell-based; settings: whole blood incubated with effector
Protocol: Incubation: Whole blood (75-300 μL) was incubated with 200 μL of effector at 37° C. for 5-10 min. (see Summary of Results below).
Washes: After incubation of whole blood with/without effector, blood cells were washed four times with Saline buffer or HBS (BSA) by centrifugal pelleting to remove exogenous effector and to evaluate hemolysis. After final centrifugation, pellet was not resuspended.

[2] = Visual appearance of effector solution; type: physicochemical
Protocol: Preparation of Effector Stock: Effector stock was prepared at 100-120 mM (Molal solution) using water or Bis-Tris Buffer.

[3] = tested on: whole blood; assay: Blood oxygen dissociation (Hemox Analyzer) of whole blood pre-incubated with effector; type: cell-based; set-up: Observed P50: unit not given here; settings: for P50 of treated-washed RBC pellet vs. control: after resuspended in HBS; for change of the P50 of treated Red Blood Cells vs. control: observation, whole blood incubated with effector
Protocol: Whole blood was collected from one subject. The blood was stored in a Vacutainer with Solution A (ACD) and stored at 4-8° C.
Effector characteristics prior to incubation were:
(see Summary of Results below).
Washes: After incubation of whole blood with/without effector, blood cells were washed four times with Saline buffer or HBS (BSA) by centrifugal pelleting to remove exogenous effector and to evaluate hemolysis. […]
Blood Oxygen Dissociation Reading: Blood Oxygen Dissociation of samples were determined using a Hemox Analizer Model B (TCS Medical Products Company, New Hope, Pa.) The sample chamber contained:
10-20 μL Pelleted Blood Cells incubated with Effector.
All readings were made at 36.7-37.2° C. and at pH 7.28-7.32. The P50S were calculated from the Dissociation Curves (see FIGS. 16-23) compared to same day control P50.

[4] = target: T1, goldfish free hemoglobin (Carassius auratus, UniProt P02018+P02140); assay: Oxygen dissociation curves of goldfish free hemoglobin with allosteric effectors; type: biochemical; set-up: unit not given beside the values
T1 construct: human and goldfish free hemoglobin controls; from tissue; host or cells: goldfish blood (erythrocyte hemoglobin freed from cells); inferred from 'free hemoglobin' beside 'whole blood'
T1 sequence (P02140 1-147): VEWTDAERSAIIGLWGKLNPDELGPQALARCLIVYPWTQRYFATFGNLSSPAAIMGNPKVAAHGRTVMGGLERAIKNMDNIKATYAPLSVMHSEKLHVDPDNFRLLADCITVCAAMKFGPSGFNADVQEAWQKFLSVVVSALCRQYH
T1 sequence (P02018 1-142): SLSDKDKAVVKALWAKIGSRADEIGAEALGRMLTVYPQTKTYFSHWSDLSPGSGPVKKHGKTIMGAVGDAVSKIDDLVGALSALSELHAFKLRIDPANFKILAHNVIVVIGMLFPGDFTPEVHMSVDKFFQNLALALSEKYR
Protocol: FIG. 3 tabulates the P50 values of human and goldfish whole blood controls, human and goldfish free hemoglobin controls, and goldfish free hemoglobin that has been pre-incubated with various allosteric effectors and an ammonium salt of one of them.
FIG. 5 depicts oxygen dissociation curves of human free hemoglobin (pH 7.1; […]), goldfish free hemoglobin (pH 7.1; P50=8.5), and goldfish free hemoglobin+0.25 μmol IHP (pH 7.1; P50=15.0).
FIG. 6 depicts oxygen dissociation curves of goldfish free hemoglobin+0.5 μmol PCHA-DPG (pH 7.1; P50=10.3), goldfish free hemoglobin+0.5 μmol ATP (pH 7.08; P50=21.0), and goldfish free hemoglobin+0.5 μmol GTP (pH 7.11; P50=23.0).

[5] = target: stripped hemoglobin (Homo sapiens, UniProt P68871); settings: cited from earlier work
stripped hemoglobin, sequence (P69905 2-142 partner limits assumed): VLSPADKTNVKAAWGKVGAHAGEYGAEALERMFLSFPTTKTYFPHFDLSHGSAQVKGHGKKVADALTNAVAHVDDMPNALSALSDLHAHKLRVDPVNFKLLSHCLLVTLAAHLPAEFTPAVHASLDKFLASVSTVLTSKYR
stripped hemoglobin, sequence (P68871 2-147 limits assumed): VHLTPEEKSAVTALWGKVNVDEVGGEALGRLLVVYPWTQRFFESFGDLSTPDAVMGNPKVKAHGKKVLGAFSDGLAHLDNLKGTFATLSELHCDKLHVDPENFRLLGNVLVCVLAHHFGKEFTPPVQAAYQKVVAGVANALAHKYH

[6] = tested on: human RBCs; settings: IHP encapsulated in human RBCs by electroporation; cited from earlier work
[7] = target: allosteric site on hemoglobin (Homo sapiens, UniProt P68871); settings: displaces hemoglobin-bound 2,3-DPG; cited from earlier work
allosteric site on hemoglobin, sequence (P69905 2-142 partner limits assumed): as the sequence (P69905 2-142 partner limits assumed) above
allosteric site on hemoglobin, sequence (P68871 2-147 limits assumed): as the sequence (P68871 2-147 limits assumed) above

[8] = 75 μL whole blood incubated (2-5 min) with 200 μL 30 mM effector, washed 4×, 15 μL RBC measured at 37° C.
[9] = goldfish free hemoglobin + 0.5 μmol effector, pH 7.08-7.11

Compound	aggregation of Red Blood Cells [1]	appearance of the solution [2]	Observed P50 [3, 8]	change of the P50 of treated Red Blood Cells vs. control [3]	P50 [4, 9]	further results
NC1CCCCC1.NC1CCCCC1.NC1CCCCC1.NC1CCCCC1.NC1CCCCC1.O=C(O)[C@@H](COP(=O)(O)O)OP(=O)(O)O [PCHA-DPG, 2,3 Diphospho-D-Glyceric Acid (Pentacyclohexyclammonium salt)]	no aggregation	visually clear	50.5 and 47.3 and 36.0	Increases the P50	10.3	P50 of treated-washed RBC pellet vs. control [3]: maintain higher P50 than the control
NC1CCCCC1 [CHA, Cyclohexylamine]	no aggregation	visually clear	28.5 and 26.8	No change		
Nc1ncnc2c1ncn2[C@@H]1O[C@H](COP(=O)(O)OP(=O)(O)OP(=O)(O)O)[C@@H](O)[C@H]1O [ATP, adenosine triphosphate]					21.0	
O=C(O)C(COP(=O)(O)O)OP(=O)(O)O (stereo not drawn) [2,3-Diphosphoglycerate]						half-saturation pressure P(O2) (½) ([5]; pH 7.4, 25 C.): 12.0 mm Hg; half-saturation pressure P(O2) (½) ([5]; pH 7.4, 37 C.): 23.7 mm Hg
Cyclohexylammonium-Inositol Hexaphosphate [CHA-IHP]	no aggregation	visually clear	42.0 and 58.2 and 32.8	Increases the P50		Observed P50 ([3]; 75 μL whole blood + 200 μL 30 mM effector, washed 4×, cell pellet stored for 48 hrs at 4-8° C., measured at 37° C.): 50.5; P50 of treated-washed RBC pellet vs. control [3]: maintain higher P50 than the control; P50 EFF:WB ([3]; same sample as FIG. 12C, evaluated 48 h later (stored at 4-8 C.), 25 mM, 171 mOsM): 50.5 mmHg
O=C([O-])[C@@H](COP(=O)([O-])[O-])OP(=O)([O-])[O-].[Na+].[Na+].[Na+].[Na+].[Na+] [PNa-DPG, 2,3 Diphospho-D-Glyceric Acid (Pentasodium salt)]	no aggregation	visually clear	38.2	No change		Observed P50 ([3]; 75 μL whole blood + 200 μL 30 mM effector, 2-5 min, 37° C., Hypotonic, Osm: 163 mOsM): 37.5; Observed P50 ([3]; 75 μL whole blood + 200 μL 30 mM effector, 2-5 min, 37° C., Isotonic, Osm: 321 mOsM): 39.6
O=P(O)(O)O[C@H]1[C@H](OP(=O)(O)O)[C@@H](OP(=O)(O)O)[C@H](OP(=O)(O)O)[C@@H](OP(=O)(O)O)[C@H]1OP(=O)(O)O [IHP, myo-inositol hexakis (dehydrogen Phosphate)]	no aggregation	visually clear		No change		P50 of modified RBCs [6]: approximately 50 torr; affinity for the allosteric site relative to 2,3-DPG [7]: one-thousand times greater affinity; half-saturation pressure P(O2) (½) ([5]; pH 7.4, 25 C.): 48.4 mm Hg; half-saturation pressure P(O2) (½) ([5]; pH 7.4, 37 C.): 96.4 mm Hg; Observed P50 ([3]; 75 μL whole blood + 200 μL 30 mM effector, 2-5 min, 37° C., Hypotonic, Osm: 185 mOsM): 37.5; P50 ([4]; goldfish free hemoglobin + 0.25 μmol effector, pH 7.1): 15.0
Nc1nc2c(ncn2[C@@H]2O[C@H](COP(=O)(O)OP(=O)(O)OP(=O)(O)O)[C@@H](O)[C@H]2O)c(=O)[nH]1 [GTP]					23.0	
